This is an account of results in paper PMC12372228 (Journal of the American Chemical Society, 2025).

In one series the test system is HT-29 colon cancer cells. Nature of the series: In vitro cytotoxicity, HT-29 colon cancer cells. In kind it is cell-based. Conditions: Homo sapiens, HT-29, 72 h.
Series [1] has as its system HCT-116 colon cancer cells. Kind of series: In vitro cytotoxicity, HCT-116 colon cancer cells. Conditions: Homo sapiens, HCT-116, 72 h.
The test system of the next series is healthy mice. The settings on record: dose used is near the reported MTD; cited from earlier work.
A further series relates to HCT-116 tumors. Nature of the series: Antitumor efficacy in nude mice bearing HCT-116 tumors. Conditions: 66.7 mg/kg i.v. on days 1, 5, 9; n = 5. In kind it is in vivo.
The test system of another series is HT-29 tumors. Kind of series: Antitumor efficacy in nude mice bearing HT-29 tumors. Conditions: 66.7 mg/kg i.v. on days 1, 5, 9. In kind it is in vivo.

`CC[C@@]1(O)C(=O)OCc2c1cc1n(c2=O)Cc2cc3ccccc3nc2-1` [CPT, camptothecin]: the IC50 – broadly, the concentration needed to halve the response being measured – in the series with HT-29 colon cancer cells came to 64 nM; in series [1], 40 nM.

As to `CCc1c2c(nc3ccc(OC(=O)N4CCC(N5CCCCC5)CC4)cc13)-c1cc3c(c(=O)n1C2)COC(=O)[C@]3(O)CC` [irinotecan], in the series with healthy mice, the “reported maximum tolerated dose (MTD)” value was around 66.7 mg/kg. In addition, the median survival was 23 days with HCT-116 tumors, 33 days with HT-29 tumors (n = 5 (TT 1 study)) and 41 days with HT-29 tumors (n = 7 (TT 7E study)).
